Test results published in paper PMC11808583 (Current Neuropharmacology, 2024).

Experiments:
AChE = AChE (Electrophorus electricus, UniProt O42275); test: Ellman's assay, AChE (type VI-S) inhibition; assay type: biochemical
BChE = BChE (Equus caballus, UniProt P81908); test: Ellman's assay, BChE inhibition; assay type: biochemical
Sequence of BChE (P81908 whole entry): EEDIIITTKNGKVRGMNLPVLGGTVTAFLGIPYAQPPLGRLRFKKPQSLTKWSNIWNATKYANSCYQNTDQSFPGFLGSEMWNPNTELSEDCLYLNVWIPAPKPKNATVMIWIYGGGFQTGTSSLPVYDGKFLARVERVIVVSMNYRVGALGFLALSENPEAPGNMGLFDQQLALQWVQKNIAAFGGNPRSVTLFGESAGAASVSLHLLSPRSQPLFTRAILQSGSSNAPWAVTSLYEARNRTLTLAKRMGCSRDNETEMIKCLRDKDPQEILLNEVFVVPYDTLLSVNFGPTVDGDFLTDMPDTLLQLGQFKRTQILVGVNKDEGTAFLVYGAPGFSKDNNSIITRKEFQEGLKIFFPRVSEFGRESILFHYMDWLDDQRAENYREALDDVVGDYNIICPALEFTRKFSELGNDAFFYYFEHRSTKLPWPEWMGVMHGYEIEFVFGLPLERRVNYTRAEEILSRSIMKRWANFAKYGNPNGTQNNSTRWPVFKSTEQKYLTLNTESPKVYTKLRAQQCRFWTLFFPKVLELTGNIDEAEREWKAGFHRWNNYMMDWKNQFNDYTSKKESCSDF

Sequence of AChE (O42275 24-633): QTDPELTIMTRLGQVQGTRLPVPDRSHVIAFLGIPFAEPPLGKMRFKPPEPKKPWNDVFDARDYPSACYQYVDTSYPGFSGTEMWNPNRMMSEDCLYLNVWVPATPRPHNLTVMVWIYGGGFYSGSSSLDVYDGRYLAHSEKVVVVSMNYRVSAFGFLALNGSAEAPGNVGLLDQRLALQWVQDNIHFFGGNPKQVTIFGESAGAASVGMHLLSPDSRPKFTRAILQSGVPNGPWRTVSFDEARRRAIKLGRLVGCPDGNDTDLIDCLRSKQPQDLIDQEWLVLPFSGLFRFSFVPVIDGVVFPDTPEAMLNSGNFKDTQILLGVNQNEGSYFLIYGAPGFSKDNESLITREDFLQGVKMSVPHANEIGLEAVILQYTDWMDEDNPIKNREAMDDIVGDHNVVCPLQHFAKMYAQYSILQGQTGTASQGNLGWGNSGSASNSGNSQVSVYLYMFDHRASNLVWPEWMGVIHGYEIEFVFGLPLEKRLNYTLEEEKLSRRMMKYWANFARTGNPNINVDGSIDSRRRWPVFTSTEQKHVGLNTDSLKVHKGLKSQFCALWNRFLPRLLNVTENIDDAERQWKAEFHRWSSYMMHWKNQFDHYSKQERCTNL

Compound `C/C=C\c1ccc(O)c(OC)c1` [isoeugenol] has an IC50 (AChE) of 2620 µM and an IC50 (BChE) of 1690 µM.
